Assay results: paper PMC9588780, “Purification and structural characterization of the Na^+-translocating ferredoxin: NAD^+ reductase (Rnf) complex of Clostridium tetanomorphum” (Nature Communications, 2022)

Key:
[1] = target: T1, Rnf complex (RnfABCDEG), RnfC site (Clostridium tetanomorphum, UniProt A0A923IZ11); assay: NADH oxidation, hexacyanoferrate(III) reduction at […] nm; assay type: biochemical; details: 200 µM NADH, 100 µM hexacyanoferrate(III), 150 mM NaCl, 50 mM potassium phosphate pH 7.5, 0.05% DDM, room temperature, anaerobic
T1 construct: gene rsxC; native six-subunit membrane complex purified from C. tetanomorphum in DDM (MSP1D1/DMPC nanodisc for cryo-EM); RnfC 1-435, 47 kDa; complex ca. 200-250 kDa; with Ion-translocating oxidoreductase complex subunit A; Ion-translocating oxidoreductase complex subunit B; Ion-translocating oxidoreductase complex subunit D; Ion-translocating oxidoreductase complex subunit E; Ion-translocating oxidoreductase complex subunit G

[2] = target: T2, Rnf complex (RnfABCDEG), RnfD site (Clostridium tetanomorphum, UniProt A0A923IYK2); assay: cryo-EM structure ([…] Å); assay type: binding
T2 construct: native six-subunit membrane complex purified from C. tetanomorphum, in MSP1D1/DMPC nanodisc; RnfD 33 kDa; with Ion-translocating oxidoreductase complex subunit A; Ion-translocating oxidoreductase complex subunit B; Ion-translocating oxidoreductase complex subunit C; Ion-translocating oxidoreductase complex subunit E; Ion-translocating oxidoreductase complex subunit G

[3] = target: T3, Rnf complex (RnfABCDEG), RnfG site (Clostridium tetanomorphum, UniProt A0A923J084); assay: cryo-EM structure ([…] Å); UV fluorescence on SDS-PAGE; assay type: binding; details: covalent; phosphoester to Thr164 of RnfG
T3 construct: native six-subunit membrane complex purified from C. tetanomorphum, in MSP1D1/DMPC nanodisc; RnfG 20 kDa; with Ion-translocating oxidoreductase complex subunit A; Ion-translocating oxidoreductase complex subunit B; Ion-translocating oxidoreductase complex subunit C; Ion-translocating oxidoreductase complex subunit D; Ion-translocating oxidoreductase complex subunit E

[4] = target: T1, Rnf complex (RnfABCDEG), RnfC site; assay: coupled enzyme assay with Etf/butyryl-CoA dehydrogenase, […] nm; assay type: biochemical; details: reduced ferredoxin as electron donor (50 µM Fd), crotonyl-CoA, room temperature
[5] = target: T4, RnfD subunit of the Na+-translocating ferredoxin:NAD+ reductase (Rnf) complex of Clostridium tetanomorphum (Clostridium tetanomorphum (endogenous …, UniProt A0A923IYK2 1-310, FMN covalently attached by its phospho group to the Thr153 hydroxy group)); assay: cryo-EM structure; native Rnf complex of C. tetanomorphum reconstituted into a DMPC-filled MSP1D1 nanodisc; grids prepared in an anaerobic tent (95% N2, 5% H2); 88,423 particles, overall resolution 4.27 Å; details: both partners purified
T4 construct: native subunit of the purified Rnf complex; Also holds a riboflavin
T4 sequence (looked up): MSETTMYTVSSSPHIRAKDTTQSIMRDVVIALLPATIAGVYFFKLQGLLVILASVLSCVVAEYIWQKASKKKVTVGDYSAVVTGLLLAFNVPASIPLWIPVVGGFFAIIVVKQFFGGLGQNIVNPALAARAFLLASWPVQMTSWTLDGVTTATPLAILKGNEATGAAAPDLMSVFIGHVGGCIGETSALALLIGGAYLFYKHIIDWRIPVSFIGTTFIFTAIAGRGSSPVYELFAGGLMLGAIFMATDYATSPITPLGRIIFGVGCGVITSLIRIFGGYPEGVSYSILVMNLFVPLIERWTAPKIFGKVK

T2 sequence (A0A923IZ11 1-435 partner, one chain of several): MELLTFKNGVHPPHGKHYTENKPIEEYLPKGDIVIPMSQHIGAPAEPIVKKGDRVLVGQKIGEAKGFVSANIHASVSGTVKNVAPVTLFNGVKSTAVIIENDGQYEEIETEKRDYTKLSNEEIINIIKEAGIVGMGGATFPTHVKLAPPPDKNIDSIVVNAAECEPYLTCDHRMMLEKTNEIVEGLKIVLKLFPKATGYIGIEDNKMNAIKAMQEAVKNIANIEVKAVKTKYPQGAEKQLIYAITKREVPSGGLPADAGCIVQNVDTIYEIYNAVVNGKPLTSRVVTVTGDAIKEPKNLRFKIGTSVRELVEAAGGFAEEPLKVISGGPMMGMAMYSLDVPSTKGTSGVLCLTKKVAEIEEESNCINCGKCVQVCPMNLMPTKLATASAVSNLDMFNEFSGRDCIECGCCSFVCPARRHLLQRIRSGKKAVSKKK
T2 sequence (A0A923J0P9 1-191 partner, one chain of several): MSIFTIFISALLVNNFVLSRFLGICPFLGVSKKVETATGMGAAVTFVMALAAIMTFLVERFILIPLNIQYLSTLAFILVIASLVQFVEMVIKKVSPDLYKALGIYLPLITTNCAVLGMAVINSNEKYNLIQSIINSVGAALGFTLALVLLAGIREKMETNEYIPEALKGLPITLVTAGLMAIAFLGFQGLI
T2 sequence (A0A923IZB8 1-202 partner, one chain of several): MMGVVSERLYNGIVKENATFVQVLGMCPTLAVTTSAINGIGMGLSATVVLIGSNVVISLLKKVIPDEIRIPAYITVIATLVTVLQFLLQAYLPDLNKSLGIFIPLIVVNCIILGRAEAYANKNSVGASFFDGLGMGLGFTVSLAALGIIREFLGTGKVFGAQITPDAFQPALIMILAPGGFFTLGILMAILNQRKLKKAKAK
T2 sequence (A0A923J084 1-189 partner, one chain of several): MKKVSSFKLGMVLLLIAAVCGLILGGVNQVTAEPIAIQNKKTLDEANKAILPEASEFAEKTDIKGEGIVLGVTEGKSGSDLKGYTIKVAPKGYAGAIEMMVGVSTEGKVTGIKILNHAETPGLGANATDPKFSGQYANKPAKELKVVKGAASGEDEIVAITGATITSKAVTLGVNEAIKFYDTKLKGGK
T1 sequence (A0A923IZ11 1-435, one chain of several): as the sequence (A0A923IZ11 1-435 partner, one chain of several) above
T1 sequence (A0A923J0P9 1-191 partner, one chain of several): as the sequence (A0A923J0P9 1-191 partner, one chain of several) above
T1 sequence (A0A923IZB8 1-202 partner, one chain of several): as the sequence (A0A923IZB8 1-202 partner, one chain of several) above
T1 sequence (A0A923J084 1-189 partner, one chain of several): as the sequence (A0A923J084 1-189 partner, one chain of several) above
T3 sequence (A0A923J084 1-189, one chain of several): as the sequence (A0A923J084 1-189 partner, one chain of several) above
T3 sequence (A0A923J0P9 1-191 partner, one chain of several): as the sequence (A0A923J0P9 1-191 partner, one chain of several) above
T3 sequence (A0A923IZB8 1-202 partner, one chain of several): as the sequence (A0A923IZB8 1-202 partner, one chain of several) above
T3 sequence (A0A923IZ11 1-435 partner, one chain of several): as the sequence (A0A923IZ11 1-435 partner, one chain of several) above

## NC(=O)C1=CN([C@@H]2O[C@H](COP(=O)(O)OP(=O)(O)OC[C@H]3O[C@@H](n4cnc5c(N)ncnc54)[C@H](O)[C@@H]3O)[C@@H](O)[C@H]2O)C=CC1 [NADH]
[1]
  NADH oxidation, hexacyanoferrate(III) reduction at 420 nm: using hexacyanoferrate(III) as electron acceptor for NADH oxidation

## Cc1cc2nc3c(=O)[nH]c(=O)nc-3n(C[C@H](O)[C@H](O)[C@H](O)COP(=O)(O)O)c2cc1C [FMN]
[2]; covalent, phosphoester to Thr153 of RnfD (covalent FMN seen in structure; RnfD band not detected by UV on SDS-PAGE)
  cryo-EM structure (4.27 Å): The phospho group of FMNRnfD is covalently attached to the well-conserved Thr153 hydroxy group
[3]
  cryo-EM structure (4.27 Å); UV fluorescence on SDS-PAGE: FMN is covalently attached via its phospho group to the conserved Thr164

## NC(=O)c1ccc[n+]([C@@H]2O[C@H](COP(=O)(O)OP(=O)(O)OC[C@H]3O[C@@H](n4cnc5c(N)ncnc54)[C@H](O)[C@@H]3O)[C@@H](O)[C@H]2O)c1 [NAD^+]
[4]
  coupled enzyme assay with Etf/butyryl-CoA dehydrogenase, 340 nm: The biological relevant NAD^+ reduction with Fdred was determined with a coupled enzyme assay

## Cc1cc2nc3c(=O)[nH]c(=O)nc-3n(C[C@H](O)[C@H](O)[C@H](O)CO)c2cc1C [RBF, riboflavin]
[2]; cytoplasmic half-channel pocket of RnfD near Asn124 and Asp248, density assigned with help of A. vinelandii Rnf structure
  cryo-EM structure (4.27 Å): the density becomes interpretable as riboflavin

B1: RnfB subunit of the Na+-translocating ferredoxin:NAD+ reductase (Rnf) complex of Clostridium tetanomorphum (natural protein, UniProt A0A923E755 1-274, looked up)
chain: MEGLLFPVLSLGGLGVVFGLLLGYASKKFAVEVDERVPMVRAALPGANCGGCGFAGCDAYADAVVNAGAKPNGCPVGGAACAAKIAEIMGVVVDSSEPKKAYVKCQGTCDKAKEKYEYYGAMTCVDAANIPGAGSKTCGFGCLGLGSCVQVCAFDAIHVENGIAVVDEEACTGCGACVSICPKSVIELTPMSKKVRISCNSHDKGIEVKNACSVGCLSCGLCVRNCPSEAITMVNNLPVIDYDKCTQCGVCVGKCPTKAIVNLNTNVSKEASNN
notes: native subunit of the purified Rnf complex; Carries five reliably identified [4Fe-4S] clusters; a sixth in FdI is held likely; also called ferredoxin subunit RnfB
[5]
  binding result: binds
